# Experiments:
# Details in all cases: compound at 10 μM
# [1] = target: T1, Human neuropeptide Y (NPY-Y1) (Homo sapiens, UniProt P25929); experiment: Radioligand binding, human neuropeptide Y NPY-Y1 membranes, FlashPlate, [125I]-PYY
# T1 construct: purchased Perkin Elmer Biosignal
# T1 sequence (P25929 1-384): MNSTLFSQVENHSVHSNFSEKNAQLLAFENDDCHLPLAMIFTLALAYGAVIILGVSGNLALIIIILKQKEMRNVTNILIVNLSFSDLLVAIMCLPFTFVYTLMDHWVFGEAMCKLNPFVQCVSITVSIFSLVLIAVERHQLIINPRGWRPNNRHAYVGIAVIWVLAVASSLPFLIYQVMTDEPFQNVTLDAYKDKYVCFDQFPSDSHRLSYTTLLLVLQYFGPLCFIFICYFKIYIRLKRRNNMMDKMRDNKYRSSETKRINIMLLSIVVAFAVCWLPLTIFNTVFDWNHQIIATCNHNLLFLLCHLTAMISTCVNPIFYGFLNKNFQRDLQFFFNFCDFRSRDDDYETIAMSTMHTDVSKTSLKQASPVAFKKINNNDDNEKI
# How it was run: (§1)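 Cloned human receptor membranes were coated onto FlashPlate wells and incubated with radioligand and compound (added from a 0.5 mM DMSO daughter plate) for 1 hour at room temperature in the dark. Scintillation counting gave percent inhibition, with DMSO defining total and reference ligand defining non-specific binding.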
# Human neurokinin (NK1) = target: T2, Human neurokinin (NK1) (Homo sapiens, UniProt P25103); experiment: Radioligand binding, human neurokinin NK1 membranes, filtration, [125I]-Substance P
# T2 construct: purchased Perkin Elmer Biosignal
# T2 sequence (P25103 whole entry): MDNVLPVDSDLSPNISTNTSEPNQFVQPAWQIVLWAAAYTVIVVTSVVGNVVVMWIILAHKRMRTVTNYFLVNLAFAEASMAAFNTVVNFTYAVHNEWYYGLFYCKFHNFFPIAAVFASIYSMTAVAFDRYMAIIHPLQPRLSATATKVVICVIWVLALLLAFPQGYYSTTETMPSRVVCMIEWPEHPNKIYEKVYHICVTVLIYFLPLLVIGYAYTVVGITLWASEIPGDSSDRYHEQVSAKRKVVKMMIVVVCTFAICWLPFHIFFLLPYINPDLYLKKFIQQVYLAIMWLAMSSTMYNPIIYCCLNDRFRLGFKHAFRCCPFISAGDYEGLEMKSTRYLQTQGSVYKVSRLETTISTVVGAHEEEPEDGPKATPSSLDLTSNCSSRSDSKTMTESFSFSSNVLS
# How it was run: (§2)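 Filtration binding on cloned human receptor membranes (1 Unit/well), [125I]-Substance P for NK1 and [3H]-Diprenorphine for KOP, 1 h at room temperature. Filters PEI-presoaked, washed with cold 50 mM Tris-HCl pH 7.4, counted by scintillation; percent inhibition calculated, reference ligand defining non-specific binding.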
# [2] = target: T3, Human melanin-concentrating hormone (MCH1) (Homo sapiens, UniProt Q99705); experiment: Radioligand binding, human melanin-concentrating hormone MCH1 membranes, FlashPlate, [125I]-S36057
# T3 construct: purchased Perkin Elmer Biosignal
# T3 sequence (Q99705 whole entry): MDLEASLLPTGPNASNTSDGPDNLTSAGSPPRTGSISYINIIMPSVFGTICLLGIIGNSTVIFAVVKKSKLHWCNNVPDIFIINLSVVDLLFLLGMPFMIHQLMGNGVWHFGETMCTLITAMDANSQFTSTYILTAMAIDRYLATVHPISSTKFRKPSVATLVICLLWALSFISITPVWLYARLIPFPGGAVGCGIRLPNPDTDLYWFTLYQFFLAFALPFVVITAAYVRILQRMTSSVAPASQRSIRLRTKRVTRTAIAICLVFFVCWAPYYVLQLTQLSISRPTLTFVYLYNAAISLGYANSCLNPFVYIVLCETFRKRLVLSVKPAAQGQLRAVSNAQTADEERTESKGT
# How it was run: as §1
# Human Melanocortin (MC4) = target: T4, Human Melanocortin (MC4) (Homo sapiens, UniProt P32245); experiment: Radioligand binding, human melanocortin MC4 membranes, FlashPlate, [125I]-NDP-αMSH
# T4 construct: purchased Perkin Elmer Biosignal
# T4 sequence (P32245 whole entry): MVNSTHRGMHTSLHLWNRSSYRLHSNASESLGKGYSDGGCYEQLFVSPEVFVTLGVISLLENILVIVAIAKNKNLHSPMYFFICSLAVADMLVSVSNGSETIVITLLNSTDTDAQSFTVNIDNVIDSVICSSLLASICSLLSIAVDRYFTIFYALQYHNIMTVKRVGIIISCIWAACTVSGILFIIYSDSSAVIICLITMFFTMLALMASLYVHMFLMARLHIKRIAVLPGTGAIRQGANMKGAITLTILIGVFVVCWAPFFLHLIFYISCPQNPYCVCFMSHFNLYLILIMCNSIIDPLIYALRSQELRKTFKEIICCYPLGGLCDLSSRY
# How it was run: as §1
# Human Melanocortin (MC3) = target: T5, Human Melanocortin (MC3) (Homo sapiens, UniProt P41968); experiment: Radioligand binding, human melanocortin MC3 membranes, FlashPlate, [125I]-NDP-αMSH
# T5 construct: purchased Perkin Elmer Biosignal
# T5 sequence (P41968 whole entry): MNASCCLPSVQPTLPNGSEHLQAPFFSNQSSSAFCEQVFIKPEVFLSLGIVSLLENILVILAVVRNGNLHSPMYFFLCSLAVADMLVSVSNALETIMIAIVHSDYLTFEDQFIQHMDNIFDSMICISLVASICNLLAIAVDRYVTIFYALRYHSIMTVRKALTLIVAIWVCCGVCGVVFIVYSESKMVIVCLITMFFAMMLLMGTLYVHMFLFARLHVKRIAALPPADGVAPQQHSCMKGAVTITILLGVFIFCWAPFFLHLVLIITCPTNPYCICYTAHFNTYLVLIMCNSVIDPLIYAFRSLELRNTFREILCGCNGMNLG
# How it was run: as §1
# Human melanocortin (MC5) = target: T6, Human melanocortin (MC5) (Homo sapiens, UniProt P33032); experiment: Radioligand binding, human melanocortin MC5 membranes, FlashPlate, [125I]-NDP-αMSH
# T6 construct: purchased Perkin Elmer Biosignal
# T6 sequence (P33032 whole entry): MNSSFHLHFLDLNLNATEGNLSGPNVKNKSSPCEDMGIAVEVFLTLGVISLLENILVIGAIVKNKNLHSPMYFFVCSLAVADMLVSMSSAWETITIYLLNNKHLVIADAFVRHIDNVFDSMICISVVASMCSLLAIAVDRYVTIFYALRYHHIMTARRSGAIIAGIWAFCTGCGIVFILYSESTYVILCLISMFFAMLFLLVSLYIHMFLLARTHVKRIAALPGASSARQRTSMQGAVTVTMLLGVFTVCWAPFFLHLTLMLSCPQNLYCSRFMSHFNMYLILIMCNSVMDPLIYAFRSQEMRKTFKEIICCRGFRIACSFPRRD
# How it was run: as §1
# Human κ-Opioid (KOP) = target: T7, Human κ-Opioid (KOP) (Homo sapiens, UniProt P41145); experiment: Radioligand binding, human κ-opioid (KOP) membranes, filtration, [3H]-Diprenorphine
# T7 construct: purchased Perkin Elmer Biosignal
# T7 sequence (P41145 whole entry): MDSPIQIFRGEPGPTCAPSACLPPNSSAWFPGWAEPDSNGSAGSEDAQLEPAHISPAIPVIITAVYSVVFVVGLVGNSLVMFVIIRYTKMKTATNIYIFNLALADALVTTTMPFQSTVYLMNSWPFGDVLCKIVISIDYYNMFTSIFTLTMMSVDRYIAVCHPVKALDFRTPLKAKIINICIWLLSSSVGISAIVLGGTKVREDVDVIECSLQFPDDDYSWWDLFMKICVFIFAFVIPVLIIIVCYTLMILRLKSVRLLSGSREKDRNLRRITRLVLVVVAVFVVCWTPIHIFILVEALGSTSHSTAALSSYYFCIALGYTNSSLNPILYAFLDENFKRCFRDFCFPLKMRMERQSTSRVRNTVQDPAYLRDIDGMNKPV
# How it was run: as §2
# Human opioid (ORL1) = target: T8, Human opioid (ORL1) (Homo sapiens, UniProt P41146); experiment: Radioligand binding, human opioid ORL1 membranes, FlashPlate, [125I]-Nociceptin
# T8 construct: purchased Perkin Elmer Biosignal
# T8 sequence (P41146 whole entry): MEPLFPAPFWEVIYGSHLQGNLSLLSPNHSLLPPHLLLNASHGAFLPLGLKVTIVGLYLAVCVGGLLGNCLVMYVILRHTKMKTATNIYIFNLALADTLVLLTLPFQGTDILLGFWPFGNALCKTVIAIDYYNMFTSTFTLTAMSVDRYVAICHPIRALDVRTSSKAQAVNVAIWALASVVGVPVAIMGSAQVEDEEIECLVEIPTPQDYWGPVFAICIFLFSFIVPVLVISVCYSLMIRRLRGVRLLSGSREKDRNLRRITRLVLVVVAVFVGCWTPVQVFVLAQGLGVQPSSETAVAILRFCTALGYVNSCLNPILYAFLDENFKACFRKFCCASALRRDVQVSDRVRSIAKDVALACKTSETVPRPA
# How it was run: as §1
# Mouse urotensin (mUR2) = target: T9, Mouse urotensin (mUR2) (Mus musculus, UniProt Q8VIH9); experiment: Radioligand binding, mouse urotensin mUR2 membranes, FlashPlate, [125I]-Urotensin II
# T9 construct: purchased Perkin Elmer Biosignal
# T9 sequence (Q8VIH9 1-385): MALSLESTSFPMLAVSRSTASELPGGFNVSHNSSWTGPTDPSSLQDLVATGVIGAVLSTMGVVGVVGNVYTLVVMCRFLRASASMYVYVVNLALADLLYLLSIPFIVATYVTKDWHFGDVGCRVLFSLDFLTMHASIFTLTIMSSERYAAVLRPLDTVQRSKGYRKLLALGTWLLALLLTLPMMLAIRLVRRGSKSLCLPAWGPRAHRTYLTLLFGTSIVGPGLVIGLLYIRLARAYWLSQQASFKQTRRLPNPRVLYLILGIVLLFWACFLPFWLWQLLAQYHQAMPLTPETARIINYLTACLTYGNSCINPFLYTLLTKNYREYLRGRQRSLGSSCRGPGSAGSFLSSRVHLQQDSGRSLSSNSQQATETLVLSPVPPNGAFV
# How it was run: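 Cloned mouse urotensin (mUR2) receptor membranes from Perkin Elmer Biosignal were immobilized in FlashPlate microplates using a proprietary coating. Each well got 19.5 μl buffer, then 0.5 μl of DMSO, reference ligand, or compound. Adding 5 μl of [125I]-Urotensin II, diluted to 5× final concentration in binding buffer, started binding. Plates were sealed with TopSeal-A and incubated 1 hour at room temperature in the dark. Wells were counted for 30 seconds each on a TopCount after a 60-second delay, and percentage inhibition was calculated.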
# Human δ-opioid (DOP) = target: T10, Human δ-opioid (DOP) (Homo sapiens, UniProt P41143); experiment: Radioligand binding, human δ-opioid (DOP) membranes, FlashPlate, [3H]-Bremazocine
# T10 construct: purchased Perkin Elmer Biosignal
# T10 sequence (P41143 whole entry): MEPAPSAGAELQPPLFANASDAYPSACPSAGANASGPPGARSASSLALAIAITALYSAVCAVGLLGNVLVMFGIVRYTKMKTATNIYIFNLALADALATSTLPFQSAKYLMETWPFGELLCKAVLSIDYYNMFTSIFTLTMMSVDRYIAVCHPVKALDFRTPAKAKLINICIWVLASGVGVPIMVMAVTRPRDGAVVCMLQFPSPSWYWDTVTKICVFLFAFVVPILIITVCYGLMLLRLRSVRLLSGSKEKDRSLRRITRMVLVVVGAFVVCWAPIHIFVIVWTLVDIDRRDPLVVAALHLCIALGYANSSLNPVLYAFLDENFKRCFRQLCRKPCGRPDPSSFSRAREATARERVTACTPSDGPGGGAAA
# How it was run: as §1
# Human μ-opioid (MOP) = target: T11, Human μ-opioid (MOP) (Homo sapiens, UniProt P35372); experiment: Radioligand binding, human μ-opioid (MOP) membranes, FlashPlate, [3H]-Naloxone
# T11 construct: purchased Perkin Elmer Biosignal
# T11 sequence (P35372 whole entry): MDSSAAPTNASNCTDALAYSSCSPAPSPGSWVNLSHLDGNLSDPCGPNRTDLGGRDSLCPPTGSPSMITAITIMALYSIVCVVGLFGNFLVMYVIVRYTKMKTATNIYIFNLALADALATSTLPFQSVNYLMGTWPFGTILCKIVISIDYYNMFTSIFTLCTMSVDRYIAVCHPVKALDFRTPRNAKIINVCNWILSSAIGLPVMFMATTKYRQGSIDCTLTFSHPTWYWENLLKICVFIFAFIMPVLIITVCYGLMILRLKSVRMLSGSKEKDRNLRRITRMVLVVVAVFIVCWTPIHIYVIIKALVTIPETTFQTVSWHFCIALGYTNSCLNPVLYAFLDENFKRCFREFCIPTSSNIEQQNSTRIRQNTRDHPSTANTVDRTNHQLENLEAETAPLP
# How it was run: as §1
smiles,measurement,setting,value
COC[C@H]1OC(OCc2ccc(Cl)cc2)[C@H](NC(=O)CCCN)[C@@H](OCc2ccc(-c3ccccc3)cc2)[C@@H]1O (stereo partly shown) [compound 342],"A9: inhibition of radioligand binding, human neuropeptide Y (NPY-Y1)",[1]; [125I]-PYY,− (“−” indicates less than 50% inhibition at 10 μM)
same,"A8: inhibition of radioligand binding, human neurokinin (NK1)",Human neurokinin (NK1); [125I]-Substance P,+ (“+” indicates greater than 50% inhibition at 10 μM)
same,"A6: inhibition of radioligand binding, human melanin-concentrating hormone (MCH1)",[2]; [125I]-S36057,− (“−” indicates less than 50% inhibition at 10 μM)
same,"A4: inhibition of radioligand binding, human melanocortin (MC4)",Human Melanocortin (MC4); [125I]-NDP-αMSH,+ (“+” indicates greater than 50% inhibition at 10 μM)
same,"A3: inhibition of radioligand binding, human melanocortin (MC3)",Human Melanocortin (MC3); [125I]-NDP-αMSH,− (“−” indicates less than 50% inhibition at 10 μM)
same,"A5: inhibition of radioligand binding, human melanocortin (MC5)",Human melanocortin (MC5); [125I]-NDP-αMSH,− (“−” indicates less than 50% inhibition at 10 μM)
same,"A2: inhibition of radioligand binding, human κ-opioid (KOP)",Human κ-Opioid (KOP); [3H]-Diprenorphine,− (“−” indicates less than 50% inhibition at 10 μM)
same,"A10: inhibition of radioligand binding, human opioid (ORL1)",Human opioid (ORL1); [125I]-Nociceptin,− (“−” indicates less than 50% inhibition at 10 μM)
same,"A11: inhibition of radioligand binding, mouse urotensin (mUR2)",Mouse urotensin (mUR2); [125I]-Urotensin II,− (“−” indicates less than 50% inhibition at 10 μM)
same,"A1: inhibition of radioligand binding, human δ-opioid (DOP)",Human δ-opioid (DOP); [3H]-Bremazocine,− (“−” indicates less than 50% inhibition at 10 μM)
same,"A7: inhibition of radioligand binding, human μ-opioid (MOP)",Human μ-opioid (MOP); [3H]-Naloxone,+ (“+” indicates greater than 50% inhibition at 10 μM)
COCC1OC(OCCc2ccccc2)C(NC(=O)CNC(=N)N)C(OCc2ccc(Cl)cc2)C1O (stereo not shown) [compound 220],A9: inhibition of radioligand binding,"[1]; [125I]-PYY, FlashPlate",− (“−” indicates less than 50% inhibition at 10 μM)
same,A8: inhibition of radioligand binding,"Human neurokinin (NK1); [125I]-Substance P, filtration",+ (“+” indicates greater than 50% inhibition at 10 μM)
same,A6: inhibition of radioligand binding,"[2]; [125I]-S36057, FlashPlate",− (“−” indicates less than 50% inhibition at 10 μM)
same,A4: inhibition of radioligand binding,"Human Melanocortin (MC4); [125I]-NDP-αMSH, FlashPlate",+ (“+” indicates greater than 50% inhibition at 10 μM)
same,A3: inhibition of radioligand binding,"Human Melanocortin (MC3); [125I]-NDP-αMSH, FlashPlate",+ (“+” indicates greater than 50% inhibition at 10 μM)
same,A5: inhibition of radioligand binding,"Human melanocortin (MC5); [125I]-NDP-αMSH, FlashPlate",+ (“+” indicates greater than 50% inhibition at 10 μM)
same,A2: inhibition of radioligand binding,"Human κ-Opioid (KOP); [3H]-Diprenorphine, filtration",− (“−” indicates less than 50% inhibition at 10 μM)
same,A10: inhibition of radioligand binding,"Human opioid (ORL1); [125I]-Nociceptin, FlashPlate",− (“−” indicates less than 50% inhibition at 10 μM)
same,A11: inhibition of radioligand binding,"Mouse urotensin (mUR2); [125I]-Urotensin II, FlashPlate",− (“−” indicates less than 50% inhibition at 10 μM)
same,A1: inhibition of radioligand binding,"Human δ-opioid (DOP); [3H]-Bremazocine, FlashPlate",− (“−” indicates less than 50% inhibition at 10 μM)
same,A7: inhibition of radioligand binding,"Human μ-opioid (MOP); [3H]-Naloxone, FlashPlate",− (“−” indicates less than 50% inhibition at 10 μM)
COCC1OC(OCc2ccccc2)C(NC(=O)CCCN)C(OCc2ccc(-c3ccccc3)cc2)C1O (stereo not shown) [compound 186],"A9 radioligand binding, percentage inhibition",[1]; [125I]-PYY,− (“−” indicates less than 50% inhibition at 10 μM)
same,"A8 radioligand binding, percentage inhibition",Human neurokinin (NK1); [125I]-Substance P,+ (“+” indicates greater than 50% inhibition at 10 μM)
same,"A6 radioligand binding, percentage inhibition",[2]; [125I]-S36057,− (“−” indicates less than 50% inhibition at 10 μM)
same,"A4 radioligand binding, percentage inhibition",Human Melanocortin (MC4); [125I]-NDP-αMSH,− (“−” indicates less than 50% inhibition at 10 μM)
same,"A3 radioligand binding, percentage inhibition",Human Melanocortin (MC3); [125I]-NDP-αMSH,− (“−” indicates less than 50% inhibition at 10 μM)
same,"A5 radioligand binding, percentage inhibition",Human melanocortin (MC5); [125I]-NDP-αMSH,+ (“+” indicates greater than 50% inhibition at 10 μM)
same,"A2 radioligand binding, percentage inhibition",Human κ-Opioid (KOP); [3H]-Diprenorphine,− (“−” indicates less than 50% inhibition at 10 μM)
same,"A10 radioligand binding, percentage inhibition",Human opioid (ORL1); [125I]-Nociceptin,− (“−” indicates less than 50% inhibition at 10 μM)
same,"A11 radioligand binding, percentage inhibition",Mouse urotensin (mUR2); [125I]-Urotensin II,− (“−” indicates less than 50% inhibition at 10 μM)
same,"A1 radioligand binding, percentage inhibition",Human δ-opioid (DOP); [3H]-Bremazocine,− (“−” indicates less than 50% inhibition at 10 μM)
same,"A7 radioligand binding, percentage inhibition",Human μ-opioid (MOP); [3H]-Naloxone,− (“−” indicates less than 50% inhibition at 10 μM)
NCC1CCC(C(=O)NC2O[C@H](CO)[C@@H](O)[C@H](OCc3ccc(Cl)cc3)[C@H]2NC(=O)c2ccccc2)CC1 (stereo partly shown) [compound 361],"A9: inhibition of radioligand binding, human neuropeptide Y (NPY-Y1)",[1]; [125I]-PYY,− (“−” indicates less than 50% inhibition at 10 μM)
same,"A8: inhibition of radioligand binding, human neurokinin (NK1)",Human neurokinin (NK1); [125I]-Substance P,− (“−” indicates less than 50% inhibition at 10 μM)
same,"A6: inhibition of radioligand binding, human melanin-concentrating hormone (MCH1)",[2]; [125I]-S36057,− (“−” indicates less than 50% inhibition at 10 μM)
same,"A4: inhibition of radioligand binding, human melanocortin (MC4)",Human Melanocortin (MC4); [125I]-NDP-αMSH,+ (“+” indicates greater than 50% inhibition at 10 μM)
same,"A3: inhibition of radioligand binding, human melanocortin (MC3)",Human Melanocortin (MC3); [125I]-NDP-αMSH,− (“−” indicates less than 50% inhibition at 10 μM)
same,"A5: inhibition of radioligand binding, human melanocortin (MC5)",Human melanocortin (MC5); [125I]-NDP-αMSH,− (“−” indicates less than 50% inhibition at 10 μM)
same,"A2: inhibition of radioligand binding, human κ-opioid (KOP)",Human κ-Opioid (KOP); [3H]-Diprenorphine,− (“−” indicates less than 50% inhibition at 10 μM)
same,"A10: inhibition of radioligand binding, human opioid (ORL1)",Human opioid (ORL1); [125I]-Nociceptin,− (“−” indicates less than 50% inhibition at 10 μM)
same,"A11: inhibition of radioligand binding, mouse urotensin (mUR2)",Mouse urotensin (mUR2); [125I]-Urotensin II,− (“−” indicates less than 50% inhibition at 10 μM)
same,"A1: inhibition of radioligand binding, human δ-opioid (DOP)",Human δ-opioid (DOP); [3H]-Bremazocine,− (“−” indicates less than 50% inhibition at 10 μM)
same,"A7: inhibition of radioligand binding, human μ-opioid (MOP)",Human μ-opioid (MOP); [3H]-Naloxone,− (“−” indicates less than 50% inhibition at 10 μM)
COC[C@H]1OC(OCc2ccc(Cl)cc2)[C@H](NC(=O)CCNC(=N)N)[C@@H](OCc2ccc(Cl)cc2)[C@@H]1O (stereo partly shown) [compound 38],A9 radioligand binding inhibition,[1]; human NPY-Y1 membranes,− (“−” indicates less than 50% inhibition at 10 μM)
same,A8 radioligand binding inhibition,Human neurokinin (NK1); human neurokinin NK1 membranes,+ (“+” indicates greater than 50% inhibition at 10 μM)
same,A6 radioligand binding inhibition,[2]; human MCH1 membranes,+ (“+” indicates greater than 50% inhibition at 10 μM)
same,A4 radioligand binding inhibition,Human Melanocortin (MC4); human melanocortin MC4 membranes,− (“−” indicates less than 50% inhibition at 10 μM)
same,A3 radioligand binding inhibition,Human Melanocortin (MC3); human melanocortin MC3 membranes,− (“−” indicates less than 50% inhibition at 10 μM)
same,A5 radioligand binding inhibition,Human melanocortin (MC5); human melanocortin MC5 membranes,+ (“+” indicates greater than 50% inhibition at 10 μM)
same,A2 radioligand binding inhibition,Human κ-Opioid (KOP); human κ-opioid (KOP) membranes,− (“−” indicates less than 50% inhibition at 10 μM)
same,A10 radioligand binding inhibition,Human opioid (ORL1); human ORL1 membranes,− (“−” indicates less than 50% inhibition at 10 μM)
same,A11 radioligand binding inhibition,Mouse urotensin (mUR2); mouse urotensin mUR2 membranes,− (“−” indicates less than 50% inhibition at 10 μM)
same,A1 radioligand binding inhibition,Human δ-opioid (DOP); human δ-opioid (DOP) membranes,− (“−” indicates less than 50% inhibition at 10 μM)
same,A7 radioligand binding inhibition,Human μ-opioid (MOP); human μ-opioid (MOP) membranes,− (“−” indicates less than 50% inhibition at 10 μM)

# Source: patent publication US20080009418A1, “Selective Inhibitors” (Alchemia LTD., priority 2004, published 2008)
